The record followed here is patent publication US20230026277A1, “COMPOSITION FOR PREVENTION, ALLEVIATION, OR TREATMENT OF RESPIRATORY DISEASE” (MICROX CO., LTD., priority 2019, published 2023).

Type in all cases: in vivo
The test system of one experiment is asthma-induced mice. The experiment can be described thus: Bronchial hypersensitivity reaction (Rrs value, methacholine), asthma-induced mice. As to conditions: oral 200 or 400 μg/kg/day 30 minutes before secondary challenge, 48 hours after, methacholine 5.0 to 50 mg/mL, FIG. 5. The procedure: (§1) Eight-week-old female […] mice (Orient Bio Korea Inc., Korea) having no certain pathogen were accommodated in an aseptic laminar-flow cabinet, and bred by supplying a standard solid feed ad libitum. When the following experiment was performed, the mice were made to correspond to 7- to 8-weeks old, and all laboratory animals were managed according to the protocol approved by the Institutional Animal Care and Use Committee of the Chonbuk National University Medical School.
(§2) Also, on days 21 and 28 from the experimental starting date, the mice were put into a plastic box (Plexiglas (Rohm & Haas, Philadelphia, Pa.) exposure chamber; 24.5 cm×40.5 cm×15.0 cm), and 1.5% ovalbumin was evaporated using an ultrasonic nebulizer (NE-U12; output 0.8 mL/min; Omron, Japan), and injected into the box for 30 minutes so that the mice inhaled the evaporated ovalbumin (secondary challenge).
45 mg/kg of sodium pentobarbital was intraperitoneally injected into the mice prepared in Experimental Method 1 to anesthetize the mice, and the airways were cut and an 18 gauge needle was inserted into the airways. Thereafter, the needle was connected to a small-sized animal respirator connected to a computer, and the computer system was adjusted to a respiration rate of 150 breaths per minute. Then, methacholine in the form of aerosol was fed at an increasing concentration of 5.0 to 50 mg/mL so that the mice inhaled the methacholine. Then, an airway response was measured, and indicated as an Rrs value.
Preparation Example 3 (α,δ-NA-L-G) or α,δ N-acetyl-D-glutamine was orally administered to the asthma-induced mice of Experimental Method 1 at a concentration of 200 or 400 μg/kg/day 30 minutes before a secondary airway challenge, and the bronchial hypersensitivity reaction was measured 48 hours after the secondary challenge using the method described in Experimental Method 5. The results are shown in A and B of FIG. 5.

For another experiment, the system named is IL-4, IL-5, and IL-13. Nature of the experiment: Cytokines in bronchoalveolar lavage fluid by ELISA, asthma-induced mice. The procedure:
as §1, §2
After the mice were anesthetized, a thin tube was inserted into the airway, and a piston process was repeated using a syringe filled with 0.2 mL of physiological saline to obtain a bronchoalveolar lavage fluid. The bronchoalveolar lavage fluid obtained through this piston process was stored at −70° C. when it was not immediately used in the experiments.
A level of cytokines in the bronchoalveolar lavage fluid obtained in Experimental Method 2 was measured using an ELISA kit. Here, ELISA kits specifically manufactured for TNF-α, IL-4, IL-5, and IL-13 were used.
Preparation Example 3 (α,δ-NA-L-G) or α,δ N-acetyl-D-glutamine was orally administered to the asthma-induced mice of Experimental Method 1 at a concentration of 100, 200, 400 or 800 μg/kg/day 30 minutes before a secondary airway challenge, and levels of IL-4, IL-5, and IL-13 were measured through the method described above in Experimental Method 4 24 hours after the secondary challenge. The results are shown in A and B of FIG. 4.

In a further experiment the test system is MKP-1 protein. Nature of the experiment: Western blot of MKP-1 protein in lung tissue of asthma-induced mice. How it is done:
as §2
A tissue was extracted from each of the mice manufactured in Experimental Method 1, and finely ground to a cell level. Thereafter, the cells were lysed in a cell lysis buffer containing a protease inhibitor to obtain a cell lysate. The cell lysate was centrifuged to obtain protein. Then, an equivalent amount of the proteins obtained from the cells were loaded on an SDS-PAGE gel and electrophoresed. The proteins present in the electrophoresed gel were transferred to a PVDF membrane. […] The PVDF membrane was washed three times with a TBS-T buffer, and visualized and quantified using an ECL Western blotting detection reagent. […]
Small interfering RNA (siRNA; hereinafter referred to as “MKP-1 siRNA”) against RNA encoding an MKP-1 protein, and control siRNA strands were purchased from SANTA CRUZ (USA). […] An effect of the MKP-1 siRNA interference was determined by measuring an expression level of the MKP-1 protein in the lung tissue through Western blot analysis. […]

In the case of `CC(=O)NC(=O)CC[C@H](NC(C)=O)C(=O)O` [Preparation Example 3, 2,5-diacetamido-5-oxopentanoic acid], in the experiment with asthma-induced mice, the “Rrs value (bronchial hypersensitivity reaction)” value is given as “remarkably inhibited”. Besides, the “levels of IL-4, IL-5, and IL-13” value in the experiment with IL-4, IL-5, and IL-13 (asthma-induced mice, oral 200 μg/kg/day 30 minutes before secondary challenge, measured 24 hours after, FIG. 4A) was “remarkably inhibited”. The “expression levels of the cytokines” value in the experiment on IL-4, IL-5, and IL-13 (experiment [5-6], together with siRNA specific to MKP-1, FIG. 13) was “increased”. In addition, the “expression levels of the cytokines (IL-4, IL-5, and IL-13)” value in the experiment on IL-4, IL-5, and IL-13 (experiment [5-6], without MKP-1 siRNA, FIG. 13) was “decreased”. Besides, the “level of the MKP-1 protein” value with MKP-1 protein (lung tissue, oral daily 200, 500 or 1,000 μg/kg/day, 10 and 30 minutes after secondary challenge, FIG. 7) is reported as “more increased depending on the concentration”; with MKP-1 protein (with MKP-1 siRNA treatment, same conditions as [5-1], FIG. 8) it was “did not increase”.
